Measured values from publication PMC8854719, “Phase 1A/1B dose-escalation and -expansion study to evaluate the safety, pharmacokinetics, food effects and antitumor activity of pamiparib in advanced solid tumours” (British Journal of Cancer, 2021).

Test: Safety and tolerability: adverse events, dose-limiting toxicities, MTD, RP2D (Phase 1A/1B)
Assay type: in vivo
Experimental: This was an open-label, Phase 1, dose-escalation/dose-expansion study, conducted across six study centres in Australia. The dose-escalation phase evaluated twice-daily (BID) and once-daily (QD) dosing, and the dose-expansion phase evaluated the BID RP2D from the dose-escalation phase and food effects (Fig. 1). The food-effects cohort comprised two sequences: fast followed by fed (sequence 1) and fed followed by fast (sequence 2). […] The decision to proceed to the next dose cohort was determined by the Safety Monitoring Committee and followed a modified 3 + 3 escalation scheme. […] When ≥2 DLTs occurred in the first 23 days of a dose level, the next lower dose level was declared the MTD. Safety was monitored and DLTs were assessed in all dose cohorts. […] The food-effects cohort investigated the effects of food on the PK of pamiparib in patients with advanced solid tumours.
The QD dosing regimen was added as an amendment to the protocol with the purpose of exploring the feasibility of a more convenient regimen.
Safety and tolerability were assessed throughout the study by monitoring adverse events (AEs), serious AEs, clinical laboratory measurements and physical examinations. Adverse events were categorised according to their severity (National Cancer Institute Common Terminology Criteria for Adverse Events v4.03) and relationship to the study treatment.

C[C@]12CCCN1CC1=NNC(=O)c3cc(F)cc4[nH]c2c1c34 [pamiparib]
Treatment-emergent AE: Grade 3 or higher (40 mg BID (n = 6)): 3 (50.0) n (%)
Treatment-emergent AE: Leading to death (40 mg BID (n = 6)): 0 (0.0) n (%)
Treatment-emergent AE: Leading to dose interruption (40 mg BID (n = 6)): 4 (66.7) n (%)
Treatment-emergent AE: Leading to dose modification (40 mg BID (n = 6)): 4 (66.7) n (%)
Treatment-emergent AE: Leading to dose reduction (40 mg BID (n = 6)): 0 (0.0) n (%)
Treatment-emergent AE: Leading to treatment discontinuation (40 mg BID (n = 6)): 1 (16.7) n (%)
Treatment-emergent AE: Serious (40 mg BID (n = 6)): 2 (33.3) n (%)
Treatment-related AE (40 mg BID (n = 6)): 6 (100.0) n (%)
Treatment-related AE: Grade 3 or higher (40 mg BID (n = 6)): 2 (33.3) n (%)
Treatment-related AE: Leading to death (40 mg BID (n = 6)): 0 (0.0) n (%)
Treatment-related AE: Leading to dose interruption (40 mg BID (n = 6)): 3 (50.0) n (%)
Treatment-related AE: Leading to dose modification (40 mg BID (n = 6)): 3 (50.0) n (%)
Treatment-related AE: Leading to dose reduction (40 mg BID (n = 6)): 0 (0.0) n (%)
Treatment-related AE: Leading to treatment discontinuation (40 mg BID (n = 6)): 0 (0.0) n (%)
Treatment-related AE: Serious (40 mg BID (n = 6)): 0 (0.0) n (%)
Upper respiratory tract infection, AE of any grade (40 mg BID (n = 6)): 1 (16.7) n (%)
Urinary tract infection, AE of any grade (40 mg BID (n = 6)): 0 (0.0) n (%)
Vomiting, AE of any grade (40 mg BID (n = 6)): 5 (83.3) n (%)
Dose-limiting toxicities observed (description) (40 mg BID, n = 1): Grade 2 nausea
Incidence of nausea (60 mg BID): 54.5%
Abdominal pain, AE of any grade (60 mg BID (n = 11)): 3 (27.3) n (%)
Anaemia, AE of any grade (60 mg BID (n = 11)): 4 (36.4) n (%)
Ascites, AE of any grade (60 mg BID (n = 11)): 0 (0.0) n (%)
Back pain, AE of any grade (60 mg BID (n = 11)): 1 (9.1) n (%)
Constipation, AE of any grade (60 mg BID (n = 11)): 1 (9.1) n (%)
Cough, AE of any grade (60 mg BID (n = 11)): 1 (9.1) n (%)
Decreased appetite, AE of any grade (60 mg BID (n = 11)): 1 (9.1) n (%)
Diarrhoea, AE of any grade (60 mg BID (n = 11)): 4 (36.4) n (%)
Dose-limiting toxicity (60 mg BID (n = 11)): 0 (0.0) n (%)
Dyspnoea, AE of any grade (60 mg BID (n = 11)): 1 (9.1) n (%)
Fatigue, AE of any grade (60 mg BID (n = 11)): 2 (18.2) n (%)
Headache, AE of any grade (60 mg BID (n = 11)): 0 (0.0) n (%)
Hypoalbuminemia, AE of any grade (60 mg BID (n = 11)): 2 (18.2) n (%)
Hypomagnesemia, AE of any grade (60 mg BID (n = 11)): 0 (0.0) n (%)
Hypophosphatemia, AE of any grade (60 mg BID (n = 11)): 1 (9.1) n (%)
Increased AST, AE of any grade (60 mg BID (n = 11)): 1 (9.1) n (%)
Muscle spasms, AE of any grade (60 mg BID (n = 11)): 1 (9.1) n (%)
Nausea, AE of any grade (60 mg BID (n = 11)): 6 (54.5) n (%)
Neutropenia, AE of any grade (60 mg BID (n = 11)): 0 (0.0) n (%)
Non-cardiac chest pain, AE of any grade (60 mg BID (n = 11)): 1 (9.1) n (%)
Pain in extremity, AE of any grade (60 mg BID (n = 11)): 1 (9.1) n (%)
Peripheral sensory neuropathy, AE of any grade (60 mg BID (n = 11)): 1 (9.1) n (%)
Pleural effusion, AE of any grade (60 mg BID (n = 11)): 2 (18.2) n (%)
Pyrexia, AE of any grade (60 mg BID (n = 11)): 0 (0.0) n (%)
Treatment-emergent AE (60 mg BID (n = 11)): 11 (100.0) n (%)
Treatment-emergent AE: Grade 3 or higher (60 mg BID (n = 11)): 9 (81.8) n (%)
Treatment-emergent AE: Leading to death (60 mg BID (n = 11)): 3 (27.3) n (%)
Treatment-emergent AE: Leading to dose interruption (60 mg BID (n = 11)): 8 (72.7) n (%)
Treatment-emergent AE: Leading to dose modification (60 mg BID (n = 11)): 8 (72.7) n (%)
Treatment-emergent AE: Leading to dose reduction (60 mg BID (n = 11)): 0 (0.0) n (%)
Treatment-emergent AE: Leading to treatment discontinuation (60 mg BID (n = 11)): 0 (0.0) n (%)
Treatment-emergent AE: Serious (60 mg BID (n = 11)): 9 (81.8) n (%)
Treatment-related AE (60 mg BID (n = 11)): 7 (63.6) n (%)
Treatment-related AE: Grade 3 or higher (60 mg BID (n = 11)): 1 (9.1) n (%)
Treatment-related AE: Leading to death (60 mg BID (n = 11)): 0 (0.0) n (%)
Treatment-related AE: Leading to dose interruption (60 mg BID (n = 11)): 2 (18.2) n (%)
Treatment-related AE: Leading to dose modification (60 mg BID (n = 11)): 2 (18.2) n (%)
Treatment-related AE: Leading to dose reduction (60 mg BID (n = 11)): 0 (0.0) n (%)
Treatment-related AE: Leading to treatment discontinuation (60 mg BID (n = 11)): 0 (0.0) n (%)
Treatment-related AE: Serious (60 mg BID (n = 11)): 1 (9.1) n (%)
Upper respiratory tract infection, AE of any grade (60 mg BID (n = 11)): 1 (9.1) n (%)
Urinary tract infection, AE of any grade (60 mg BID (n = 11)): 3 (27.3) n (%)
Vomiting, AE of any grade (60 mg BID (n = 11)): 4 (36.4) n (%)
Incidence of nausea (80 mg BID): 80.0%
Abdominal pain, AE of any grade (80 mg BID (n = 10)): 2 (20.0) n (%)
Anaemia, AE of any grade (80 mg BID (n = 10)): 4 (40.0) n (%)
